Laboratory results taken from patent US9562082B2, “Production of glycoproteins with low N-glycolylneuraminic acid (Neu5Gc) content” (LEK Pharmaceuticals D.D., priority 2009, dated 2017).

Assays:
Format in all cases: cell-based, Chinese hamster
Recombinant CHO cells [1] = assay: Titre of secreted glycoprotein by ELISA
Protocol: (§1) Cell viability was determined by the trypan blue exclusion method. The cell concentration was determined using a Vi-CELL™ Series Cell Viability Analyzer (Beckman Coulter, Fullerton, Calif., USA). Glucose, lactate, glutamine, and ammonia (NH4^+) concentrations were measured during the growth phase using a BioProfile Analyzer for mammalian cell culture (BioProfile 100 plus, Nova Biomedical, Waltham, USA). Additionally, oxygen and […] concentrations were monitored daily using pHOx (Stat Prophile pHOx Basic, Nova Biomedical, Waltham, USA). Secreted glycoprotein concentrations were quantified by enzyme linked immunosorbent assay (ELISA), and the titres were expressed in μg/ml.
The concentration of the secreted glycoproteins was quantified using an enzyme linked immunosorbent assay kit from R&D Systems (R&D Systems, Inc., Minneapolis, Minn., USA) according to the manufacturer's instructions. Microplate wells, pre-coated with monoclonal (mouse) antibodies specific for the respective glycoproteins expressed were first incubated with standard blank samples and specimens. […] The absorbance of the coloured solution was measured photometrically at 450 nm (Micro plate reader, Tecan, Columbus, USA) and was proportional to the concentration of the glycoprotein in the sample.

Recombinant CHO cells [2] = assay: Neu5Gc content of glycoprotein secreted by CHO cells cultivated with medium additives (RP-HPLC of DMB-labelled sialic acids)
Description: Recombinant CHO cells expressing high titres of the glycosylated human glycoproteins were cultivated in suspension culture using rich in-house standard medium without additives according to the invention. After 2 weeks of passages, the cells were first harvested and subsequently inoculated into the same medium, however, supplemented with a range of DMSO concentrations from 0.25% to 1.50% (w/v). The effect of DMSO on growth, productivity, degree of sialylation, and Neu5Gc content was studied.
“One factor at the time”-experiments with different DMSO concentrations at 37° C. and 33° C., respectively, were performed at first in an attempt to determine the DMSO concentration and temperature which are best to minimise the Neu5Gc content on the glycoproteins secreted. To study the interaction between the parameters (i) DMSO concentration, (ii) time of DMSO addition, and (iii) time of the temperature shift (from 37° C. to 33° C.), further experiments were performed with the Design-Expert/Design-Ease programme (Stat-Ease, Inc., Minneapolis, Minn., USA) using the response surface method. Parameters (i), (ii), and (iii) were chosen as numeric factors and the axial points were set slightly out of already known ranges in order to cover a wide design space. One replicate on axial points, one replicate on factorial points and 4 centre points were performed. The results were analysed using the Design of Expert (DOE) software (Design-Expert, Version 7.1). The results of the shake flask experiments were confirmed in the Biostat®B bioreactor (Sartorius, B. Braun Biotech International, Germany). Exponentially growing cells were taken from cell culture flasks having a surface area of 225 cm^2 (Corning®Costar®). A Biostat®B bioreactor with a working volume of 5 litres was inoculated with 2×10^5 cells/ml. Cells were cultivated in a batch mode under standard conditions (37° C., pH 7.0, dissolved oxygen concentration (DOT) 50%) in the rich in-house standard medium supplemented with 0.75% (w/v) DMSO.
In order to study the effect of key intermediates of the metabolic pathway leading to the sialylation of the glycoproteins and consequently to the conversion of Neu5Ac to Neu5Gc, a two factorial minimal resolution IV design, which allows for the estimation of the main effects, was established. Said design allowed the determination which of the components NAcMan, NAcGlc, Man, Fru, and Gal has/have an impact on the degree of sialylation and conversion of Neu5Ac to Neu5Gc. To confirm the results from the DOE findings, the production medium was enriched with 8.75 mM NAcMan and 8.75 mM NAcGlc in combination with manganese (Mn^2+) salts in different concentrations, e.g., in the concentrations mentioned earlier in this application.
At the end of the batch culture the cells were removed. The glycoproteins were purified from the remaining harvests by means of immuno-affinity chromatography. Briefly, up to 2 mg of each of the glycoproteins per ml of the chromatographic resin (20-500 ml of the harvest) were loaded onto the column. Elution of the glycoproteins was performed with 0.1 M Na-phosphate buffer, pH 2.5. By adding 1 M Na-phosphate buffer, pH 7.5 (made up by a combination of Na2H-phosphate and NaH2-phosphate), the pH of the eluate was immediately adjusted to 7 and then stored for further analysis at below −60° C.
Sialic acids (Neu5Gc, Neu5Ac, Neu-5,7Ac2, Neu5Gc9Ac, Neu-5,9Ac2, Neu-5,8,9Ac3) were differentiated using highly sensitive RP-HPLC. Enzymatic desialylation with neuraminidase (a2-3,6,8,9-neuraminidase (Sialidase) from Arthrobacter ureafaciens, Roche, USA) released sialic acids. The released sialic acids were labelled with the fluorescent dye 1,2-diamino-4,5-methylenedioxybenzene (DMB). DMB-labelling is non-selective and therefore provides a pool of labelled sialic acid derivates in stoichiometric amounts. Derivates of the DMB-labelled sialic acids were separated on an RP-HPLC column using isocratic elution. […]

Recombinant CHO cells [3] = assay: Cell viability by trypan blue exclusion; details: 8 day batch cultures, all DMSO concentrations, times of addition and temperatures tested
Protocol: as §1
Initially, the inventor avoided the addition of DMSO to the cell culture at the beginning of the bioprocess, because […] speculated that such addition might not be optimal, since the cells had no time for an optimal lag phase-growth (adaptation). […] Viable cell density and viability of the cells were measured in the middle and at the end of that period. The final titre (concentration of each glycoprotein in the culture medium) was measured in the supernatants with ELISA. […] The content of Neu5Gc on the purified glycoproteins was determined, and the acidic isoform distribution reflecting the degree of sialylation was measured with AEX.

**Q.** For `C[S+](C)[O-]` [DMSO, dimethyl sulfoxide], which “Titre, DOE point prediction” value (Recombinant CHO cells [1]; DMSO 0.75, temperature 37) is on record?
**A.** 65.56 µg/mL

**Q.** And the titre (Recombinant CHO cells [1]; darbepoetin alfa, with DMSO)?
**A.** ~57 µg/mL

**Q.** What about the “average Neu5Gc content for all glycoproteins tested” value (shortened to “average Neu5Gc content”) (Recombinant CHO cells [2]; 0.25% DMSO) of the same compound?
**A.** 1.46%

**Q.** What about the “average Neu5Gc content” value (Recombinant CHO cells [2]; 0.5% DMSO) of the same compound?
**A.** 1.17%

**Q.** What about the “content of Neu5Gc lowered by” value (Recombinant CHO cells [2]; 0.75% (w/v) DMSO, 5 litre bioreactor batch, vs batch without DMSO) of the same compound?
**A.** 50-60%

**Q.** And the “average Neu5Gc content” value (Recombinant CHO cells [2]; 0.75% DMSO)?
**A.** 0.93%

**Q.** What about the “average Neu5Gc content” value (Recombinant CHO cells [2]; 1% DMSO) of the same compound?
**A.** 0.88%

**Q.** What about the “average Neu5Gc content” value (Recombinant CHO cells [2]; 1.25% DMSO) of the same compound?
**A.** 0.79%

**Q.** What about the Neu5Gc content (Recombinant CHO cells [2]; darbepoetin alfa, 0.75% (w/v) DMSO, FIG. 1b) of the same compound?
**A.** about 0.9%

**Q.** What about the “content of Neu5Gc” value (Recombinant CHO cells [2]; darbepoetin alfa, bioreactor batch process, 0.75% (w/v) DMSO) of the same compound?
**A.** about 1%

**Q.** And the “content of Neu5Gc” value (Recombinant CHO cells [2]; darbepoetin alfa, shake flask batch process, 0.75% (w/v) DMSO)?
**A.** about 0.8%

**Q.** What about the final cell viability (Recombinant CHO cells [3]) of the same compound?
**A.** above 97.5%
